Source: the RepoRT retention time repository

experiment: HILIC, Waters ACQUITY UPLC BEH Amide, 100 × 2.1 mm, 1.7 µm; A: water + 0.125% formic acid + 10 mM ammonium formate; B: 5% water + 95% acetonitrile + 0.125% formic acid + 10 mM ammonium formate; gradient (min/%B) 0/100 2/100 7.7/70 9.5/40 10.25/30 12.75/100 17/100; conditions: stereoisomer not certain

Compound	LC retention time [min]
N#Cc1ccc(C(c2ccc(C#N)cc2)n2cncn2)cc1 [Letrozol]	0.98
CC12CC3CC(C)(C1)CC(N)(C3)C2 [Memantine]	4.24
NCC1CCC(C(=O)Oc2ccc(CCC(=O)O)cc2)CC1 (centres undefined) [Cetraxate]	5.29
CC(C=CC1(O)C(C)=CC(=O)CC1(C)C)=CC(=O)O (centres undefined) [Abscisic acid]	1.33
NCCCNCCCCNCCCN [Spermine]	7.24
CNS(=O)(=O)Cc1ccc2[nH]cc(CCN(C)C)c2c1 [Sumatriptan]	4.31
CC(=O)NC(Cc1c[nH]c2ccccc12)C(=O)O (centres undefined) [N-Acetyltryptophan]	2.81
c1ccc2scnc2c1 [Benzothiazole]	1.11
O=P(O)(O)OC1OC(CO)C(O)C(O)C1O (centres undefined) [Glucose-1-phosphate]	9.61
C=CC1=C(C(=O)O)N2C(=O)C(NC(=O)C(=NOCC(=O)O)c3csc(N)n3)C2SC1 (centres undefined) [Cefixime]	7.79
CCC1OC(=O)C(C)C(OC2CC(C)(OC)C(O)C(C)O2)C(C)C(OC2OC(C)CC(N(C)C)C2O)C(C)(OC)CC(C)C(=O)C(C)C(O)C1(C)O (centres undefined) [Clarithromycin]	3
CSCCC(NC=O)C(=O)O (centres undefined) [N-Formylmethionine]	3.93
CCCCCCCCC=CCCCCCCCC(=O)OCC(O)CO (centres undefined) [Monoolein]	1.19
NC(Cn1ccc(=O)[nH]c1=O)C(=O)O (centres undefined) [Willardiine]	8.72
Cc1cn(C2OC(CO)C(O)C2O)c(=S)[nH]c1=O (centres undefined) [5-Methyl-2-thiouridine]	1.98
CC1CC2C3CCC4=CC(=O)C=CC4(C)C3(F)C(O)CC2(C)C1C(=O)CO (centres undefined) [Desoximetasone]	1.13
CC(C)c1nc(CN(C)C(=O)NC(C(=O)NC(Cc2ccccc2)CC(O)C(Cc2ccccc2)NC(=O)OCc2cncs2)C(C)C)cs1 (centres undefined) [Ritonavir]	1.15
C=CC1=C(C(=O)O)N2C(=O)C(NC(=O)C(=NO)c3csc(N)n3)C2SC1 (centres undefined) [Cefdinir]	6.94
CNNCc1ccc(C(=O)NC(C)C)cc1 [Procarbazine]	4.61
O=C(CCCN1CC=C(n2c(=O)[nH]c3ccccc32)CC1)c1ccc(F)cc1 [Droperidol]	3.48
OCC1OC(OCC2OC(O)C(O)C(O)C2O)C(O)C(O)C1O (centres undefined) [Isomaltose]	7.19
CCn1cc(C(=O)O)c(=O)c2cc(F)c(N3CCN(C)CC3)cc21 [Pefloxacin]	3.65
CCN1CC(CCN2CCOCC2)C(c2ccccc2)(c2ccccc2)C1=O (centres undefined) [Doxapram]	1.64
CN(C)CCc1c[nH]c2ccc(Cn3cncn3)cc12 [Rizatriptan]	5.11

Compound	LC retention time [min]
NCCCCN [Putrescine]	9.3
CSCCC(NC(=O)CCC(N)C(=O)O)C(=O)O (centres undefined) [gamma-Glutamylmethionine]	8.55
O=C(O)CNC(=O)c1ccco1 [N-(2-Furoyl)glycine]	4.01
c1ccc(-c2ccc(C(c3ccccc3)n3ccnc3)cc2)cc1 (centres undefined) [Bifonazole]	1.19
CC(=O)CC(C)(C)O [4-Hydroxy-4-methyl-2-pentanone]	4.88
NC(CCC(=O)NC(CS)C(=O)NCC(=O)O)C(=O)O (centres undefined) [Glutathione (reduced)]	9.07
Oc1ccc2c3c1OC1C(O)CCC4(O)C(C2)N(CC2CCC2)CCC314 (centres undefined) [Nalbuphine]	5.25
NC(CCOC(=O)CCC(=O)O)C(=O)O (centres undefined) [O-Succinylhomoserine]	8.06
CSc1ncnc2nc[nH]c12 [6-Methylmercaptopurine]	1.49
O=P(O)(O)OCC1OC(O)C(O)C(O)C1O (centres undefined) [Glucose-6-phosphate]	9.86
CCCCCC(O)C=CC=O (centres undefined) [4-Hydroxynonenal]	1.07
NCc1[nH]cc(CCC(=O)O)c1CC(=O)O [Porphobilinogen]	7.4
CC(C)C(O)C(=O)O (centres undefined) [2-Hydroxy-3-methylbutyric acid]	1.29
O=c1ccn(C2OC(CO)C(O)C2O)c(=O)[nH]1 (centres undefined) [Uridine]	4.72
Nc1[nH]c(=O)ncc1F [5-Flurocytosine]	4.62
CCC(C)C(N)C(=O)O (centres undefined) [Isoleucine]	7.18
CCC(=O)OC(Cc1ccccc1)(c1ccccc1)C(C)CN(C)C (centres undefined) [Propoxyphene]	2.01
COc1cc(-c2ccc(=O)[nH]n2)ccc1OC(F)F [Zardaverine]	1.19
CNc1nc2c(ncn2C2OC(CO)C(O)C2O)c(=O)[nH]1 (centres undefined) [N2-Methylguanosine]	6.4
CC(=O)NC(CCCN)C(=O)O [N-alpha-Acetyl-L-ornithine]	8.31
NCCS [2-Aminoethanethiol]	2.05
OCC1OC(Oc2cc(O)cc(C=Cc3ccc(O)cc3)c2)C(O)C(O)C1O (stereo not drawn) [trans-Piceid]	4.64
Cc1ccc(C(C)C)c(O)c1 [Thymol]	1.53
CC(=O)OCC(N)C(=O)O (centres undefined) [O-Acetylserine]	7.67

Compound	LC retention time [min]
Cc1cc(O)cc(=O)o1 [4-Hydroxy-6-methyl-2-pyrone]	1.47
CCOC(=O)C(CCc1ccccc1)NC1CCc2ccccc2N(CC(=O)O)C1=O (centres undefined) [Benazepril]	1.33
C[N+](C)(C)CCCCC(N)C(=O)[O-] (centres undefined) [NEPSILON,NEPSILON,NEPSILON-TRIMETHYLLYSINE]	9.29
C=CC(C)(O)CCC=C(C)C (centres undefined) [Linalool]	0.97
CCOC(=O)C(CCc1ccccc1)NC(C)C(=O)N1C(C(=O)O)CC2CCCC21 (centres undefined) [Ramipril]	1.4
CC(=O)NCCc1c[nH]c2ccc(O)cc12 [N-Acetyl-5-hydroxytryptamine]	1.43
CC1CNC(=O)NC1=O (centres undefined) [5,6-Dihydro-5-methyluracil]	1.57
NCCCCN=C(N)N [Agmatine]	8.92
CC(CN)C(=O)O (centres undefined) [3-Aminoisobutyric acid]	7.4
COc1cc2nc(N3CCN(C(=O)c4ccco4)CC3)nc(N)c2cc1OC [Prazosin]	3.75
CC1C(=O)Nc2ccccc21 (centres undefined) [3-Methyloxyindole]	1.07
CC(=O)Oc1ccccc1C(=O)Nc1ncc([N+](=O)[O-])s1 [Nitazoxanide]	1
COc1cccc(C(=O)O)c1N [2-Amino-3-methoxybenzoic acid]	1.27
O=C(O)C1CC(O)CN1 (centres undefined) [Hydroxyproline]	8.14
Cc1nnc2n1-c1ccc(Cl)cc1C(c1ccccc1Cl)=NC2 [Triazolam]	1.3
CC(C(=O)O)c1ccc(CC2CCCC2=O)cc1 (centres undefined) [Loxoprofen]	1.09
O=C(O)CNC(=O)c1ccc(O)cc1 [4-Hydroxyhippuric acid]	5.86
Cn1c[n+](C2OC(CO)C(O)C2O)c2nc(N)nc([O-])c21 (centres undefined) [7-Methylguanosine]	7.34
COc1cc(C=Cc2ccc(O)cc2)cc(OC)c1 [Pterostilbene]	0.98
NCC1CCC(C(=O)O)CC1 (centres undefined) [4-Aminomethylcyclohexanecarboxylic acid]	6.6
NC(Cc1cnc[nH]1)C(=O)O (centres undefined) [Histidine]	9.48
O=C(OC1C(Oc2ccccc2COC(=O)C2(O)C=CCCC2=O)OC(CO)C(O)C1O)c1ccccc1 (centres undefined) [Tremulacin]	1.51
COc1cc2c(cc1OC)C13CCN4CC5=CCOC6CC(=O)N2C1C6C5CC43 (centres undefined) [Brucine]	4.57
Cc1cc2c(s1)Nc1ccccc1N=C2N1CCN(C)CC1 [Olanzapine]	4.56

Compound	LC retention time [min]
O=C(O)CNC(=O)OCc1ccccc1 [N-Benzyloxycarbonylglycine]	7.67
CN1C2CCCC1CC(NC(=O)c1nn(C)c3ccccc13)C2 (centres undefined) [Granisetron]	4.12
CC(C)CC(=O)NCC(=O)O [N-Isovalerylglycine]	2.94
CCC(O)CC(=O)O (centres undefined) [3-Hydroxyvaleric acid]	1.29
NC(=O)CCCCC1CCSS1 (centres undefined) [Lipoamide]	1.25
NC(N)=NCCCC(N)C(=O)N1CCCC1C(=O)O (centres undefined) [Arg-Pro]	9.51
O=C(O)CP(=O)(O)O [Phosphonoacetic acid]	9.73
CC(C)C(NC(=O)C(N)CCC(=O)O)C(=O)NC(Cc1ccccc1)C(=O)O (stereo not drawn) [Glu-Val-Phe]	7.66
N#CCc1c[nH]c2ccccc12 [3-Indoleacetonitrile]	8.02
NCCC(=O)O [beta-Alanine]	8.02
CC12CCC(=O)C=C1CCC1C2C(=O)CC2(C)C1CCC2(O)C(=O)CO (centres undefined) [Cortisone]	1.29
NCC(=O)O [Glycine]	8.33
COc1c2occc2cc2ccc(=O)oc12 [Xanthotoxin]	1.04
COc1ccc2[nH]cc(CCN)c2c1 [5-Methoxytryptamine]	4.99
Oc1cc(O)cc(O)c1 [Phloroglucinol]	1.15
CCCSc1ccc2nc(NC(=O)OC)[nH]c2c1 [Albendazole]	1.22
O=[N+]([O-])c1cc[n+]([O-])c2ccccc12 [4-Nitroquinoline-N-oxide]	1.14
COC(=O)C1=C(C)NC(C)=C(C(=O)OC)C1c1ccccc1[N+](=O)[O-] [Nifedipine]	1.02
CCCCCCCC=O [Octanal]	6.98
Cc1cccc(C)c1NC(=O)C1CCCCN1C (centres undefined) [Mepivacaine]	2.96
Cc1cccc(C)c1NC(=O)C(C)N (centres undefined) [Tocainide]	4.97
COC(=O)C1C(O)CC2CCC1N2C (centres undefined) [Ecgonine methylester]	4.18
